Activity calls are given as the source filed them. The rule behind the calls is not given here.
Legend:
Rattus norvegicus [1] = assay: Neuroprotective activity in stress hyperresponsive Fischer F344 rat assessed as increase in perfusion in substantia nigra at 30 mg/kg, iv administered as bolus dose via catheter by ASL-based MRI analysis; format: functional, organism-based
[2] = Volume of distribution in cynomolgus monkey; format: ADME, Macaca fascicularis; conditions: in vivo
[3] = Selectivity ratio of Kb for antagonist activity at human […] receptor to Kb for antagonist activity at human Gq5s-coupled V1a receptor expressed in CHO cells
[4] = Selectivity ratio of Kb for antagonist activity at human V2 receptor to Kb for antagonist activity at human Gq5s-coupled V1a receptor expressed in CHO cells
Rattus norvegicus [5] = assay: Neuroprotective activity in stress hyperresponsive Fischer F344 rat assessed as increase in perfusion in raphe nuclei at 30 mg/kg, iv administered as bolus dose via catheter by ASL-based MRI analysis; format: functional, organism-based
Rattus norvegicus [6] = assay: Neuroprotective activity in stress hyperresponsive Fischer F344 rat assessed as increase in perfusion in hypothalamus at 30 mg/kg, iv administered as bolus dose via catheter by ASL-based MRI analysis; format: functional, organism-based
[7] = Oral bioavailability in cynomolgus monkey; format: ADME, organism-based, Macaca fascicularis; conditions: in vivo
[8] = Volume of distribution in dog; format: ADME, Canis lupus familiaris; conditions: in vivo
[9] = Oral bioavailability in rat; format: ADME, organism-based; conditions: in vivo
[10] = biological target: Vasopressin V1a receptor (Homo sapiens) (UniProt P37288); assay: Antagonist activity at human Gq5s-coupled V1a receptor expressed in CHO cells assessed as inhibition of vasopressin-induced calcium flux preincubated for 20 mins followed by vasopressin addition and measured for 5 mins by fluo-4-AM dye based FLIPR assay; format: functional, cell-based
Chain of Vasopressin V1a receptor (Homo sapiens) (P37288 whole entry, looked up, the tested form may be a part): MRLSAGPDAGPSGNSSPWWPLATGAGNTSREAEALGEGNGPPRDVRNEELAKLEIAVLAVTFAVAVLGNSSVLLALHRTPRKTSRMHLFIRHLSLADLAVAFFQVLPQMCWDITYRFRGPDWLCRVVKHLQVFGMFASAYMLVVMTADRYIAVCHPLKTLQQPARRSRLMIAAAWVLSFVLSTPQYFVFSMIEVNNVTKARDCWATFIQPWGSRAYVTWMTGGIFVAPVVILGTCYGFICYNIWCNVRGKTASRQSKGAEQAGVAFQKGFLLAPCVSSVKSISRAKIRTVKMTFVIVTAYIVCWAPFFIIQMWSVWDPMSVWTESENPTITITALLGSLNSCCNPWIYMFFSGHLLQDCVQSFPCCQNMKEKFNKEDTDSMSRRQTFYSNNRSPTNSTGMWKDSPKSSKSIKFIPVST

Rattus norvegicus [11] = assay: Neuroprotective activity in stress hyperresponsive Fischer F344 rat assessed as change in perfusion in dorsal hippocampus at 30 mg/kg, iv administered as bolus dose via catheter by ASL-based MRI analysis; format: functional, organism-based
Rattus norvegicus [12] = assay: Neuroprotective activity in stress hyperresponsive Fischer F344 rat assessed as change in perfusion in inferior colliculi at 30 mg/kg, iv administered as bolus dose via catheter by ASL-based MRI analysis; format: functional, organism-based
Rattus norvegicus [13] = assay: Neuroprotective activity in iv dosed stress hyperresponsive Fischer F344 rat assessed as improvement in neural activity pattern administered as bolus dose via catheter by ASL-based MRI analysis; format: functional, organism-based
Rattus norvegicus [14] = assay: Neuroprotective activity in stress hyperresponsive Fischer F344 rat assessed as change in perfusion in primary motor cortex at 30 mg/kg, iv administered as bolus dose via catheter by ASL-based MRI analysis relative to control; format: functional
Homo sapiens = organism: Homo sapiens; assay: Selectivity ratio of Kb for antagonist activity at recombinant human 5HT2B receptor expressed in CHOK1 cells to Kb for antagonist activity at human Gq5s-coupled V1a receptor expressed in CHO cells; format: cell-based
Rattus norvegicus [15] = assay: Neuroprotective activity in stress hyperresponsive Fischer F344 rat assessed as change in perfusion in superior colliculi at 30 mg/kg, iv administered as bolus dose via catheter by ASL-based MRI analysis; format: functional, organism-based
[16] = biological target: MDR1 (ABCB1, P-glycoprotein) (Homo sapiens, UniProt P08183); assay: Substrate activity at human MDR1 expressed in LLC-PK1 cells assessed as efflux ratio of permeability at 1 uM measured after 3.5 hrs by lucifer yellow based scintillation counting or HPLC method; format: ADME, cell-based
Chain of MDR1 (ABCB1, P-glycoprotein) (P08183 whole entry): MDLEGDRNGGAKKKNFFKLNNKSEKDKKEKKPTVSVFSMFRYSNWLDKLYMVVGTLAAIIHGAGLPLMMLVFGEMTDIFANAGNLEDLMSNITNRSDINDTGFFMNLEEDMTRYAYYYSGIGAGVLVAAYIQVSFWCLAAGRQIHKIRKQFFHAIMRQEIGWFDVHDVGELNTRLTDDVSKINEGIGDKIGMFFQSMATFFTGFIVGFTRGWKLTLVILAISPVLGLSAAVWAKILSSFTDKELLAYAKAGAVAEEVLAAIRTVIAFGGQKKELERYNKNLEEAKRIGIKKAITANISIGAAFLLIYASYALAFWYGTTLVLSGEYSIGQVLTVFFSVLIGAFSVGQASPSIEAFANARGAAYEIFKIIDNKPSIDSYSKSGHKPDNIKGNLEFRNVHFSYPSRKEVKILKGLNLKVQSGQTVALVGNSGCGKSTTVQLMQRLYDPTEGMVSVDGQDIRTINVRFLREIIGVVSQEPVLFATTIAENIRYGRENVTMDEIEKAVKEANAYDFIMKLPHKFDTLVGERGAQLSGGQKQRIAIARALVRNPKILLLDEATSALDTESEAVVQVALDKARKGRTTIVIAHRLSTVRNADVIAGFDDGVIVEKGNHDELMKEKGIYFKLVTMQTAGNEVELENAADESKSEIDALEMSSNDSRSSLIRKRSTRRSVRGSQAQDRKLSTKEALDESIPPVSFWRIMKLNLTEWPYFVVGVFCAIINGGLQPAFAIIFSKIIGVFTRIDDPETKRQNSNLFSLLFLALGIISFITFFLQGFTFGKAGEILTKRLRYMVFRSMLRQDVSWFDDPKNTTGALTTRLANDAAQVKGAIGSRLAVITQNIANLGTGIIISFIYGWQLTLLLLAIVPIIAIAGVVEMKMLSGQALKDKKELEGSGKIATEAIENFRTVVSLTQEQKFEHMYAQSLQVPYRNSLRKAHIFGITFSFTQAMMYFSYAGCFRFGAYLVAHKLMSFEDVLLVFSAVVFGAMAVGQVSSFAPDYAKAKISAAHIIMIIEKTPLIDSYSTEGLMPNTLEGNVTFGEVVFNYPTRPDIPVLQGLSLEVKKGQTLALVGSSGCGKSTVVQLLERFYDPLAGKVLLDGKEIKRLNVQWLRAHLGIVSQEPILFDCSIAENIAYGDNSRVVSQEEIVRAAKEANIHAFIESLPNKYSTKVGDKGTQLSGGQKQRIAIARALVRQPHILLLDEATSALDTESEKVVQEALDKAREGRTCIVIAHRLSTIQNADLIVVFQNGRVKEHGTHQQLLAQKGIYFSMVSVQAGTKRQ

[17] = biological target: 5-hydroxytryptamine receptor 2B (Homo sapiens) (UniProt P41595); assay: Antagonist activity at recombinant human 5HT2B receptor expressed in CHOK1 cells assessed as inhibition of serotonin-induced inositol phosphate production measured after 30 mins by HTRF assay; format: functional, cell-based
Chain of 5-hydroxytryptamine receptor 2B (Homo sapiens) (P41595 whole entry): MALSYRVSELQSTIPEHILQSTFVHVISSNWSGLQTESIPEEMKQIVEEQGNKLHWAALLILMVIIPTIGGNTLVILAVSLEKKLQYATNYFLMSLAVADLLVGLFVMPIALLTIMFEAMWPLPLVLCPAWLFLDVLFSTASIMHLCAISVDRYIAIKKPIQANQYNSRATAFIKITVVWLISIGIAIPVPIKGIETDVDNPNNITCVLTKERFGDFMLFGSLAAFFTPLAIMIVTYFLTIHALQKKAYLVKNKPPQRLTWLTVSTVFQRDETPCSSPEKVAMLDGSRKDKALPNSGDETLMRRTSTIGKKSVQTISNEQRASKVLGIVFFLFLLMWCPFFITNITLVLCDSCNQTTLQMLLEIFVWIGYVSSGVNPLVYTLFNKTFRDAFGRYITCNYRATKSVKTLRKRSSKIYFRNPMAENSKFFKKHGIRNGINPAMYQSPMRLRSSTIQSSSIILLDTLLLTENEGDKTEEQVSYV

[18] = Volume of distribution in rat; format: ADME; conditions: in vivo
Rattus norvegicus [19] = assay: Neuroprotective activity in stress hyperresponsive Fischer F344 rat assessed as increase in perfusion in amygdala at 30 mg/kg, iv administered as bolus dose via catheter by ASL-based MRI analysis; format: functional, organism-based
Rattus norvegicus [20] = assay: Neuroprotective activity in stress hyperresponsive Fischer F344 rat assessed as increase in perfusion in ventral tegmental area at 30 mg/kg, iv administered as bolus dose via catheter by ASL-based MRI analysis; format: functional, organism-based
[21] = Protein binding in human plasma assessed as unbound fraction; format: ADME, cell-free
Rattus norvegicus [22] = assay: In vivo receptor occupancy at V1a receptor in stress hyperresponsive Fischer F344 rat at 30 mg/kg, iv administered as bolus dose via catheter; format: functional
Rattus norvegicus [23] = assay: Neuroprotective activity in stress hyperresponsive Fischer F344 rat assessed as change in perfusion in visual cortex at 30 mg/kg, iv administered as bolus dose via catheter by ASL-based MRI analysis relative to control; format: functional
Rattus norvegicus [24] = assay: Neuroprotective activity in stress hyperresponsive Fischer F344 rat assessed as change in perfusion in caudate putamen at 30 mg/kg, iv administered as bolus dose via catheter by ASL-based MRI analysis; format: functional, organism-based
Rattus norvegicus [25] = assay: Neuroprotective activity in stress hyperresponsive Fischer F344 rat assessed as increase in perfusion in entorhinal piriform cortex at 30 mg/kg, iv administered as bolus dose via catheter by ASL-based MRI analysis; format: functional, organism-based
Rattus norvegicus [26] = assay: Neuroprotective activity in stress hyperresponsive Fischer F344 rat assessed as change in perfusion in medial prefrontal at 30 mg/kg, iv administered as bolus dose via catheter by ASL-based MRI analysis relative to control; format: functional

Question: For `CN1Cc2cc(Cl)ccc2-n2c(nnc2[C@H]2CC[C@H](Oc3ccccn3)CC2)C1` [BALOVAPTAN], which Activity (Rattus norvegicus [1]) is on record?
Answer: The Activity was “Active”.

Question: And the Vd [2]?
Answer: The Vd was 0.5 to 1.3 L/kg.

Question: What about the Selectivity ratio [3] of the same compound?
Answer: Its Selectivity ratio is 2735.

Question: What about the Selectivity ratio [4] of the same compound?
Answer: The Selectivity ratio was 3888.

Question: What about the Activity (Rattus norvegicus [5]) of the same compound?
Answer: Its Activity is “Active”.

Question: And the Activity (Rattus norvegicus [6])?
Answer: The Activity was “Active”.

Question: And the bioavailability [7]?
Answer: Its bioavailability is 130%.

Question: And the Vd [8]?
Answer: Its Vd is 0.5 to 1.3 L/kg.

Question: And the bioavailability [9]?
Answer: Its bioavailability is 40%.

Question: And the Kb [10]?
Answer: Its Kb is 0.39 nM.

Question: What about the Activity (Rattus norvegicus [11]) of the same compound?
Answer: Its Activity is “Active”.

Question: What about the Activity (Rattus norvegicus [12]) of the same compound?
Answer: Its Activity is “Active”.

Question: What about the Activity (Rattus norvegicus [13]) of the same compound?
Answer: The Activity was “Dose-dependent effect”.

Question: And the Activity (Rattus norvegicus [14])?
Answer: The Activity was -20%.

Question: What about the Selectivity ratio (Homo sapiens) of the same compound?
Answer: Its Selectivity ratio is 938.

Question: And the Activity (Rattus norvegicus [15])?
Answer: The Activity was “Active”.

Question: What about the efflux ratio at 3.5 h, 1 µM [16] of the same compound?
Answer: The efflux ratio at 3.5 h, 1 µM was less than 2.

Question: And the Kb [17]?
Answer: The Kb was 366 nM.

Question: And the Vd [18]?
Answer: Its Vd is 0.5 to 1.3 L/kg.

Question: And the Activity (Rattus norvegicus [19])?
Answer: Its Activity is “Active”.

Question: What about the Activity (Rattus norvegicus [20]) of the same compound?
Answer: Its Activity is “Active”.

Question: What about the fraction unbound [21] of the same compound?
Answer: Its fraction unbound is 0.13.

Question: And the Occ (Rattus norvegicus [22])?
Answer: The Occ was greater than 90%.

Question: What about the Activity (Rattus norvegicus [23]) of the same compound?
Answer: Its Activity is -20%.

Question: What about the Activity (Rattus norvegicus [24]) of the same compound?
Answer: Its Activity is “Active”.

Question: And the Activity (Rattus norvegicus [25])?
Answer: Its Activity is “Active”.

Question: What about the Activity (Rattus norvegicus [26]) of the same compound?
Answer: The Activity was -20%.
